# Source: article PMC11272821, “Mechanistic safety assessment via multi-omic characterisation of systemic pathway perturbations following in vivo MAT2A inhibition” (Archives of Toxicology, 2024)
# Test system: rat liver proteome
# Experiment: Liver label-free quantitative proteomics
# Format: in vivo
# Conditions: liver protein
# Method: Liver tissue were homogenized in PreOmics iST buffer (PreOmics) using a bead ruptor. […] Peptides were purified using PreOmics iST cartridges and vacuum-centrifuged to dryness. Peptides were subsequently reconstituted in 2 vol% ACN and 0.1 vol% formic acid for single-run LC–MS analysis. Peptides were analyzed using a Thermo EASY-nLC1200 coupled online to an Exploris 480 Mass Spectrometer equipped with a Nanospray Flex Ion Source integrated with a column oven (PRSO-V1, Sonation) and a FAIMS unit. Peptides were separated using a nonlinear gradient and analyzed by acquiring spectra through Data Independent Acquisition (DIA). Data was analyzed using Spectronaut V15.7.2 (Biognosys AG) direct DIA analysis using an isoform Rat database (UniProt downloaded 22.02.2021) consisting of 9,746 protein entries utilizing the Pulsar search engine. Analysis settings were maintained to factory settings and identification was set to 1% false discovery rate (FDR) for precursor and protein level. Additional information is provided in Supplementary M&M.
# Data analysis was performed using R Statistical Software (version 4.3.0). Proteomics, transcriptomics and metabolomics expression changes were visualised using heatmaps showing log2 fold change relative to control. In the heatmaps missing values were highlighted in grey.
# Proteomics Analysis. Liver tissue was placed in vials containing 1.4 mm zirconia beads and taken up in 500 µL of PreOmics iST buffer (PreOmics). In a cold room set to 4 °C, tissues were homogenized utilizing a bead Ruptor 12 by shaking for 30 seconds for a total of 5 times using ‘high’ setting. Lysate was normalized using BCA assay (Thermo Fisher Scientific), and subsequently incubated at 95 °C for 10 min for reduction, and alkylation of proteins. A total of 50 μg from each sample was subjected to enzymatic cleavage for 3 h by adding equal amounts of endoproteinase Lys-C and trypsin (ThermoFisher Scientific, # A40009) in a 1:50 (wt/wt) enzyme:protein ratio. De-salting and purification were performed according to the PreOmics iST protocol on a styrene divinylbenzene reversed-phase sulfonate sorbent. Purified peptides were vacuum-centrifuged to dryness and reconstituted in double-distilled water with 2 vol% ACN and 0.1 vol% formic acid (FA) for single-run LC-MS analysis.
# Peptides were loaded onto a ReproSil-Pur 120 C18AQ 1.9 µm in-house packed to a 5 µm tip 75u ID × 360u × 50 cm column using Thermo EASY-nLC 1200 coupled online to an Exploris 480 Mass Spectrometer equipped with a Nanospray Flex Ion Source integrated with a column oven (PRSO-V1, Sonation) maintained at 50 °C. Peptides were separated using a nonlinear gradient: Mobile phase A was 0.1 vol% FA and 3 vol% acetonitrile (ACN) in water, Mobile phase B was 90 vol% ACN and 0.1 vol % FA. The gradient was operated at 250 nL/min flowing 3 vol% B for 3 min, 3 to 5 vol% B over 3 min, 5 to 17 vol % B over 120 min, 17 to 24 vol % B over 26 min, 24 to 30 vol% B over 14 min, 30 to 85 vol% B over 3 min.
structure (smiles),measurement,setting,value
Cn1cc2cc(-c3cc4[nH]nc(C5CC5)c4n(-c4ccc(OC(F)F)cc4)c3=O)ccc2n1 [AZ’9567],Hexa Log2FC,10mg/kg,-0.7
same,Hfe Log2FC,10mg/kg,1.0
same,Hmgcs1 Log2FC,10mg/kg,1.1
same,Hmgn2 Log2FC,10mg/kg,1.0
same,Hnrnpa1 Log2FC,10mg/kg,1.1
same,Hsd17b7 Log2FC,10mg/kg,0.6
same,Idi1 Log2FC,10mg/kg,0.9
same,Igf1 Log2FC,10mg/kg,-1.2
same,Kalrn Log2FC,10mg/kg,0.6
same,Lipa Log2FC,10mg/kg,-0.8
same,Lrrc8d Log2FC,10mg/kg,1.0
same,Lyrm2 Log2FC,10mg/kg,0.9
same,Mat2a Log2FC,10mg/kg,0.7
same,Mat2b Log2FC,10mg/kg,-2.4
same,Me1 Log2FC,10mg/kg,-1.5
same,Mettl7b Log2FC,10mg/kg,-0.8
same,Mettl26 Log2FC,10mg/kg,-1.6
same,Minpp1 Log2FC,10mg/kg,1.1
same,Mospd1 Log2FC,10mg/kg,-0.7
same,Mt1 Log2FC,10mg/kg,5.3
same,Mtr Log2FC,10mg/kg,1.1
same,Mybbp1a Log2FC,10mg/kg,1.1
same,Ncl Log2FC,10mg/kg,0.8
same,Nob1 Log2FC,10mg/kg,0.8
same,Orm1 Log2FC,10mg/kg,1.2
same,Paics Log2FC,10mg/kg,0.8
same,Pcyt1a Log2FC,10mg/kg,0.6
same,Pklr.1 Log2FC,10mg/kg,-0.7
same,Prmt1 Log2FC,10mg/kg,0.9
same,Pspc1 Log2FC,10mg/kg,0.8
same,Ptprs Log2FC,10mg/kg,-1.3
same,Pum3 Log2FC,10mg/kg,0.9
same,Rbm3 Log2FC,10mg/kg,1.0
same,Rgn Log2FC,10mg/kg,-0.6
same,Rmdn1 Log2FC,10mg/kg,0.7
same,S1pr1 Log2FC,10mg/kg,-0.6
same,Scd1 Log2FC,10mg/kg,-1.8
same,Sh3glb1 Log2FC,10mg/kg,0.6
same,Sirt2 Log2FC,10mg/kg,0.9
same,Slc6a13 Log2FC,10mg/kg,-1.3
same,Slc39a4 Log2FC,10mg/kg,-2.2
same,Sqle Log2FC,10mg/kg,0.6
same,Srebf1 Log2FC,10mg/kg,1.2
same,Sts Log2FC,10mg/kg,-0.7
same,Tat Log2FC,10mg/kg,-1.7
same,Tceanc2 Log2FC,10mg/kg,1.4
same,Thg1l Log2FC,10mg/kg,1
same,Tpmt Log2FC,10mg/kg,-1.2
same,Tspo Log2FC,10mg/kg,2
same,Txnrd2 Log2FC,10mg/kg,-0.7
same,Ube2f Log2FC,10mg/kg,0.9
same,Ugt2b1 Log2FC,10mg/kg,-1.6
same,Wdr45 Log2FC,10mg/kg,-0.9
same,Ythdc1 Log2FC,10mg/kg,0.7
same,A2m Log2FC,30mg/kg,3.7
same,Abcb1 Log2FC,30mg/kg,2
same,Abhd1 Log2FC,30mg/kg,-1.5
same,Acaca Log2FC,30mg/kg,-1.2
same,Acbd4 Log2FC,30mg/kg,-0.6
same,Acly Log2FC,30mg/kg,-0.9
same,Acsl1 Log2FC,30mg/kg,-0.8
same,Acsl3 Log2FC,30mg/kg,-0.9
same,Acsl5 Log2FC,30mg/kg,-0.6
same,Acsm2 Log2FC,30mg/kg,1.4
same,Akap5 Log2FC,30mg/kg,-1.1
same,Aldh1a1 Log2FC,30mg/kg,2.0
same,Aldh1a7 Log2FC,30mg/kg,1.7
same,Aldh16a1 Log2FC,30mg/kg,-0.5
same,Alpl Log2FC,30mg/kg,1.8
same,Als2 Log2FC,30mg/kg,-1.1
same,Anpep Log2FC,30mg/kg,1.4
same,Aox1 Log2FC,30mg/kg,-1.2
same,Apeh Log2FC,30mg/kg,-0.7
same,Apoc1 Log2FC,30mg/kg,-1.1
same,Aqp8 Log2FC,30mg/kg,1.0
same,Asns Log2FC,30mg/kg,1.0
same,Baat Log2FC,30mg/kg,-0.9
same,Banf1 Log2FC,30mg/kg,0.9
same,Bhmt2 Log2FC,30mg/kg,1.1
same,Bhmt Log2FC,30mg/kg,1.8
same,Brix1 Log2FC,30mg/kg,0.9
same,Ca5a Log2FC,30mg/kg,0.9
same,Carnmt1 Log2FC,30mg/kg,-1.3
same,Cbs Log2FC,30mg/kg,-2.8
same,Ccnd1 Log2FC,30mg/kg,16.3
same,Cdh1 Log2FC,30mg/kg,0.8
same,Cdo1 Log2FC,30mg/kg,-4.1
same,Ces2c Log2FC,30mg/kg,1.7
